Laboratory results reported in ChEMBL document CHEMBL1201862, “PubChem BioAssay data set” (2004).
Active and inactive are the calls of the source.

Key:
[1] = half-maximal inhibitory concentration for glucagon-like peptide-1 release, STC-1 cell line, dose-response (AID 1117345); format: functional, cell-based
[2] = Glucagon-like peptide 1 release potency, NCI-H716 cell line, dose-response, half-maximal inhibitory concentration (AID 1117344); format: functional, cell-based
[3] = Dose-response inhibition of insulin secretion in a rat insulinoma line at 5 mM glucose (AID 1117331); format: functional, cell-based; conditions: INS-1E
[4] = Luminescence Cell-Based Dose Retest to Confirm Inhibitors of Cancer Stem Cells. [Related pubchem assays (depositor defined):AID2717, AID2721]; format: functional, Homo sapiens; conditions: Homo sapiens
[5] = target: T1, Induced myeloid leukemia cell differentiation protein Mcl-1 (Homo sapiens, UniProt Q07820); experiment: MCL1-BIM BH3 interaction inhibitors, dose response, biochemical, fluorescence polarization, BIM-BH3 peptide, 1536-well (AID 2217)
T1 sequence (Q07820 whole entry): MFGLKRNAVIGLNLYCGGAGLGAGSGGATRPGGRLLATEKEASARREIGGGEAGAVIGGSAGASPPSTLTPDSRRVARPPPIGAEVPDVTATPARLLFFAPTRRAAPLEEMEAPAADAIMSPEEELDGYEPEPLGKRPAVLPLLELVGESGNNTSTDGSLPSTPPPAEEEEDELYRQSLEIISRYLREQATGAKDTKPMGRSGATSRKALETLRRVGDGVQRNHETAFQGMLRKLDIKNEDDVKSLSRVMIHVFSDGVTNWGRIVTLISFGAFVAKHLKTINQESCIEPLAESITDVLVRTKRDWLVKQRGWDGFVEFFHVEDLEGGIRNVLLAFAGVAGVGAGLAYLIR

[6] = target: Dual specificity protein phosphatase 3 (Homo sapiens, UniProt P51452); experiment: SAR VHR1 Fluorescent Assay for In Vitro dose response studies. [Related pubchem assays (depositor defined):AID1654, AID1661, AID1878, AID1992, AID2004, AID2070, AID2085]; format: functional
Bcl-2-like protein 10 = target: T2, Bcl-2-like protein 10 (Homo sapiens, UniProt Q9HD36); experiment: displacers of TR3 peptide from Bcl-B, primary screen, selectivity assay for Bfl-1 inhibitor project, biochemical, fluorescence polarization, FITC-TR3 peptide (AID 748);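 also: fluorescence polarization from a fluorescein-labelled TR3 peptide binding purified Bcl-B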
T2 sequence (Q9HD36 whole entry): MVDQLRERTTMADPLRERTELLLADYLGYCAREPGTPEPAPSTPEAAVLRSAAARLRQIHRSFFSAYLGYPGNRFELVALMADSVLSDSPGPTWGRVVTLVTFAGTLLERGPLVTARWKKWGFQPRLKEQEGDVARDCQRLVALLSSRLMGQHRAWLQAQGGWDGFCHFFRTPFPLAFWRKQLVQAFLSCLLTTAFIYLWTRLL

[7] = target: T1, Induced myeloid leukemia cell differentiation protein Mcl-1; format: functional
[8] = target: T3, Tyrosine-protein phosphatase non-receptor type 7 (Homo sapiens, UniProt P35236); experiment: redox-dependent HePTP inhibition, mechanism study, biochemical, fluorescence (AID 2068); format: functional
T3 sequence (P35236 whole entry): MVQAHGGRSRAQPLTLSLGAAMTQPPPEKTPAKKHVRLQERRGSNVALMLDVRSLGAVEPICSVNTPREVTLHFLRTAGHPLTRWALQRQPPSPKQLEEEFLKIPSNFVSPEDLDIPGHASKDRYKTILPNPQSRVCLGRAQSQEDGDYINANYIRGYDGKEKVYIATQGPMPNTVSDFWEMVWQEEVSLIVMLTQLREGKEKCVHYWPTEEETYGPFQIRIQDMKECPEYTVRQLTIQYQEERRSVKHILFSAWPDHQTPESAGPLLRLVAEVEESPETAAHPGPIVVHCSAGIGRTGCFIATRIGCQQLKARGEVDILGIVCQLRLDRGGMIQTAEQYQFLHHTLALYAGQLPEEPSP

SUMO-activating enzyme [9] = target: T4, SUMO-activating enzyme (Homo sapiens, UniProt Q9UBT2); experiment: SUMOylation inhibitor hit validation, confirmation, SUMOylation inhibitor project, biochemical, AlphaScreen (AID 2018); format: functional
T4 sequence (Q9UBE0 whole entry): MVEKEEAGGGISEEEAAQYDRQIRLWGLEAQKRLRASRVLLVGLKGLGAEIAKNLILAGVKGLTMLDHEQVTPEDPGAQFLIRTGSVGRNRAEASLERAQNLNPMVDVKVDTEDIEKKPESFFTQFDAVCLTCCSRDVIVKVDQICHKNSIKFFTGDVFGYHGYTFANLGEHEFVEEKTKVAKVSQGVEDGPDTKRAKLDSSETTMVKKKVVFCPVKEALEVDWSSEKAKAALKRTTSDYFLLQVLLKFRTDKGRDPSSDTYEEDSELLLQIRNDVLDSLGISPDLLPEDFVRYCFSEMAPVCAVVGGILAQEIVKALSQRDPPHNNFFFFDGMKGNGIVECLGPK
T4 sequence (Q9UBT2 whole entry): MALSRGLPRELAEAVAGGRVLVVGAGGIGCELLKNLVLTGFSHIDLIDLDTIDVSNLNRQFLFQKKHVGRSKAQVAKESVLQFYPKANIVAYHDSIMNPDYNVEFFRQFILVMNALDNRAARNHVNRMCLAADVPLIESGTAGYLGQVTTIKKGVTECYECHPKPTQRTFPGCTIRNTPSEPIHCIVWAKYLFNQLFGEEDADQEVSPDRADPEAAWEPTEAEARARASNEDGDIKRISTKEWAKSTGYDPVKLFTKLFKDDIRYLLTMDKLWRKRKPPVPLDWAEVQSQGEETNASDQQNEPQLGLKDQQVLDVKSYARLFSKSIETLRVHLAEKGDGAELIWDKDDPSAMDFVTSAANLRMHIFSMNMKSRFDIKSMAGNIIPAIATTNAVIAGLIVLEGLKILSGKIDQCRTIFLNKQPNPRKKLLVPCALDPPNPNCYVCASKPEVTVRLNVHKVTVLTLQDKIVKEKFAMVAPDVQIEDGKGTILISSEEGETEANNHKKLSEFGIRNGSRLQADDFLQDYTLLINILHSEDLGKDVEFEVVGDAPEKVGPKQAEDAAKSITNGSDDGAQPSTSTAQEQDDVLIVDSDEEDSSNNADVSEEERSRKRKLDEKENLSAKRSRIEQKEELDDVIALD

Genome polyprotein = Genome polyprotein (dengue virus type 2, UniProt P29990); experiment: Dengue-2 NS5 methyltransferase inhibitors, primary screen, biochemical, confirmation dose response (AID 588689); format: functional
Chain of Genome polyprotein (P29990 2492-3391 limits assumed): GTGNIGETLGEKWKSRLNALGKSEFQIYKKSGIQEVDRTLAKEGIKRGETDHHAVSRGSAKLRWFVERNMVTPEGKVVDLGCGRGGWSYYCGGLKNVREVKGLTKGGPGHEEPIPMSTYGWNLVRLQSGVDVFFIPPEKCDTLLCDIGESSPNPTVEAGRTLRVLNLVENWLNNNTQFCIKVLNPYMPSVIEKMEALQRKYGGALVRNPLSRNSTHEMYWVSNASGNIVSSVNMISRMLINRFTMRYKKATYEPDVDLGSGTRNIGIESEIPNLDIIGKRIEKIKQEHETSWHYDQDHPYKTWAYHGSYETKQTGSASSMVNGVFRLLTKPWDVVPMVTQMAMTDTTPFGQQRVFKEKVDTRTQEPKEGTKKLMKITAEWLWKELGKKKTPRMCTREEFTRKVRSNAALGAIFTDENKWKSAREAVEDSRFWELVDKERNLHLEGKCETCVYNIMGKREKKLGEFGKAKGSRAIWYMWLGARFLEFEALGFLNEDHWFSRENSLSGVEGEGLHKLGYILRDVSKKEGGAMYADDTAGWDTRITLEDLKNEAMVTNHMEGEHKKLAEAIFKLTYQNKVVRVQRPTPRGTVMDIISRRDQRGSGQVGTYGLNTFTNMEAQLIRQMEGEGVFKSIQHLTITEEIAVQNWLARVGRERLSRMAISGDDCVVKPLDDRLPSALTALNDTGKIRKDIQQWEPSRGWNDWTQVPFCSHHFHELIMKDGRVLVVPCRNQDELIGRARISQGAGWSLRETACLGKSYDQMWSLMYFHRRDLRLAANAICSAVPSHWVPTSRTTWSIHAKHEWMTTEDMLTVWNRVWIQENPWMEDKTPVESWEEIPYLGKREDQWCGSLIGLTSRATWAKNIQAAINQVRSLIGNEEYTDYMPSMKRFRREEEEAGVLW

[10] = target: T3, Tyrosine-protein phosphatase non-receptor type 7; format: functional
SUMO-activating enzyme [11] = target: T4, SUMO-activating enzyme; experiment: inhibitors of in vitro SUMOylation cascade, primary screen, biochemical, HTRF, uHTS (AID 2006); format: protein-complex assay
[12] = target: T5, Dual specificity protein phosphatase 6 (Rattus norvegicus, UniProt Q64346); format: functional
T5 sequence (Q64346 whole entry): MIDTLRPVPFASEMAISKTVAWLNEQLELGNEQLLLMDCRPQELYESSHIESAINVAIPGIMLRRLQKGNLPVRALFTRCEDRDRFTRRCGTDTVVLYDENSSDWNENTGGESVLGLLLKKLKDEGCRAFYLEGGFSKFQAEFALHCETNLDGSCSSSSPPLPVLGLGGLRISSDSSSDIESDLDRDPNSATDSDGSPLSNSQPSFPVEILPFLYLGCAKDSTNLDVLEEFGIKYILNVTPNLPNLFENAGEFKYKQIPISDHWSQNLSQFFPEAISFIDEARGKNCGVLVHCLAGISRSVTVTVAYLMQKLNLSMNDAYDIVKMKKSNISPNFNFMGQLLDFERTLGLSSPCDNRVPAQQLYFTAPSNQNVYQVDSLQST

Bcl-2-like protein 1 = Bcl-2-like protein 1 (Homo sapiens, UniProt Q07817); experiment: BCL-XL inhibitors, dose response, selectivity assay for MCL1 inhibitor project, biochemical, fluorescence polarization, 1536-well (AID 2218)
Chain of Bcl-2-like protein 1 (Q07817 whole entry): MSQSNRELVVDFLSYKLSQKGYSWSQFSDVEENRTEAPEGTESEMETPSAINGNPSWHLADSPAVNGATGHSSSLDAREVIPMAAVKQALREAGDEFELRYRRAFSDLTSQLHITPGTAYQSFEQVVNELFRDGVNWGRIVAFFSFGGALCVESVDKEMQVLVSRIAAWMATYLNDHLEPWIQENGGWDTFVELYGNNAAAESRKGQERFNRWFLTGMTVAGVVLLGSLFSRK

Estrogen receptor beta = Estrogen receptor beta (Homo sapiens, UniProt Q92731); experiment: ERβ–SRC-3 coactivator interaction inhibitors, confirmation, orthogonal assay, biochemical, ELISA, streptavidin-HRP readout (AID 1060)
[13] = target: Glyceraldehyde-3-phosphate dehydrogenase (Homo sapiens, UniProt P04406)
Chain of Glyceraldehyde-3-phosphate dehydrogenase (P04406 whole entry): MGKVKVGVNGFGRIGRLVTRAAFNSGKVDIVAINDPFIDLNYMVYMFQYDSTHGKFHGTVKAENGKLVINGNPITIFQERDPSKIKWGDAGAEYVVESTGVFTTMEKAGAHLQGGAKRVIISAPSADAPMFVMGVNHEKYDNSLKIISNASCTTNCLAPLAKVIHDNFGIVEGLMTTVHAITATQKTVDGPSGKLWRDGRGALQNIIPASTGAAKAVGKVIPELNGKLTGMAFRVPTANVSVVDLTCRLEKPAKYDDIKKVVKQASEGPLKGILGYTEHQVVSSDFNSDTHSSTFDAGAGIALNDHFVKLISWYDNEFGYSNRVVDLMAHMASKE

[14] = target: T5, Dual specificity protein phosphatase 6
Phospholipase D1 = Phospholipase D1 (Homo sapiens, UniProt Q13393); experiment: PLD1 Cellular Concentration Response Study.; format: functional
Phospholipase D2 = Phospholipase D2 (Homo sapiens, UniProt O14939); experiment: PLD2 Cellular Concentration Response Study.; format: functional
Chain of Phospholipase D2 (O14939 whole entry): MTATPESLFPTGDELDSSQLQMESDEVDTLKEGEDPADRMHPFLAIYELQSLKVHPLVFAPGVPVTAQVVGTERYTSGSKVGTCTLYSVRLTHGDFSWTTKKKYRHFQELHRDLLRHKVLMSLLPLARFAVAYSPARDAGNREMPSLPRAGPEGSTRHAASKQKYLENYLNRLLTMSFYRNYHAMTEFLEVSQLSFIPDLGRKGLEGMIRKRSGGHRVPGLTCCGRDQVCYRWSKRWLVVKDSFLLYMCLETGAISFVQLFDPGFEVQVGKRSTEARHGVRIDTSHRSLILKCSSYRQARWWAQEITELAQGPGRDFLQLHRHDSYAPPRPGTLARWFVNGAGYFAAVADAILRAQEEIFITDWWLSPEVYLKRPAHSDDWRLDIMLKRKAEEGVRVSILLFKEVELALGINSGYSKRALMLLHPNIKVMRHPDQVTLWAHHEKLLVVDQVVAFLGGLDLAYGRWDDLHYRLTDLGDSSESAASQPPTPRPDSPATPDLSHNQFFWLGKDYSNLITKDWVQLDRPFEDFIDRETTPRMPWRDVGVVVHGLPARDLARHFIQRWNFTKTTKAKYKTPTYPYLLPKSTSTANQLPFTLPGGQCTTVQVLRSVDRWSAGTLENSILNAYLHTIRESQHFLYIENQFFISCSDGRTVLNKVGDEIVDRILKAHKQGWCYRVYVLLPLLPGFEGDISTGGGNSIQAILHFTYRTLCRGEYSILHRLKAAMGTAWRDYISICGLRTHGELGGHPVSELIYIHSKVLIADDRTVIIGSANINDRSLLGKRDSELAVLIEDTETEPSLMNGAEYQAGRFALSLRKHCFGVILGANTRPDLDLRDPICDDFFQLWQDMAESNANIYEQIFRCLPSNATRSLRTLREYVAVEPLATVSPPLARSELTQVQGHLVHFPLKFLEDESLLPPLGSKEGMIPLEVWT

[15] = target: Aryl hydrocarbon receptor (Homo sapiens, UniProt P35869); experiment: Luminescence-based cell-based high throughput dose response assay for activators of the Aryl Hydrocarbon Receptor (AHR). [Related pubchem assays: 2796 (Primary screen (AHR activators in singlicate)), 2845 (Confirmation screen (AHR activators in triplicate)), 434939 (Counterscreen (PXR activators in triplicate)), 2804 (Summary (AHR activators))]; format: ADME
Chain of Aryl hydrocarbon receptor (P35869 whole entry): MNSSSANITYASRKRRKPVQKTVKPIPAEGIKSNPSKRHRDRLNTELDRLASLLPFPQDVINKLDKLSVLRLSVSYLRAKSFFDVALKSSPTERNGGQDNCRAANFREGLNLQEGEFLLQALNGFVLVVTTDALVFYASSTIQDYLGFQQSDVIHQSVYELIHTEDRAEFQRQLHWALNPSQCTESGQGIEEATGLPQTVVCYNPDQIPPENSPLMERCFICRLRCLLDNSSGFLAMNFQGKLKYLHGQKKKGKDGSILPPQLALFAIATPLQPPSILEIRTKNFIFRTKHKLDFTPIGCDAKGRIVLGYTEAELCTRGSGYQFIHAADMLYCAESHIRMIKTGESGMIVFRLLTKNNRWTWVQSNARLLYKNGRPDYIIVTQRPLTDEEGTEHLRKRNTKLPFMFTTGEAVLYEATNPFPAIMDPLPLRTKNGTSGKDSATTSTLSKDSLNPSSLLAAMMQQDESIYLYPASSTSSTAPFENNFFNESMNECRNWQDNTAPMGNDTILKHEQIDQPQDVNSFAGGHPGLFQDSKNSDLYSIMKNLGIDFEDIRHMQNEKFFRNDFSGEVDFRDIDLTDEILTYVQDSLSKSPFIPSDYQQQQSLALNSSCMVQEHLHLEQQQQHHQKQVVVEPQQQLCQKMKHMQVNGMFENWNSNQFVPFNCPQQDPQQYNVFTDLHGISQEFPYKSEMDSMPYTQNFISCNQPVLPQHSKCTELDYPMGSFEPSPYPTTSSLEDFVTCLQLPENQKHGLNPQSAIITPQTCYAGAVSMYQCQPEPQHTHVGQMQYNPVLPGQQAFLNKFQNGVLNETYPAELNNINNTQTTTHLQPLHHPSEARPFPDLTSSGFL

[16] = target: Sphingosine 1-phosphate receptor 2 (Homo sapiens, UniProt O95136); experiment: Dose Response Cell Based Assay for Antagonists of the S1P2 Receptor. [Related pubchem assays: 856, 736 ]; format: functional
Chain of Sphingosine 1-phosphate receptor 2 (O95136 whole entry): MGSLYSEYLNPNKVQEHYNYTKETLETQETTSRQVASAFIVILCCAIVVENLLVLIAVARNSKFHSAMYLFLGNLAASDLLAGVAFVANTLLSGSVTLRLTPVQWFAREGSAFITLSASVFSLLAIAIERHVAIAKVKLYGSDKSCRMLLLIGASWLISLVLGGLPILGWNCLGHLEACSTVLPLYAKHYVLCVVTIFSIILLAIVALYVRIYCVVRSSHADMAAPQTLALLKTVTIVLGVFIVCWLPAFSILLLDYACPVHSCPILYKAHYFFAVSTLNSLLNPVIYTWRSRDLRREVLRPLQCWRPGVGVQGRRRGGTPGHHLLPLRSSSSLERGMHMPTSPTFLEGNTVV

[17] = P. falciparum Dd2 growth inhibitors, dose response, SYBR Green, dry powder samples (AID 1159566); format: functional, cell-based;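 also: potency for growth inhibition with lower SYBR green DNA signal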
[18] = P. falciparum Dd2 blood-stage growth inhibition, dose response, SYBR Green fluorescence, erythrocytes, dry powder, set 2 (AID 1159574); format: functional, cell-based
[19] = P. falciparum Dd2 growth inhibitors, dose response, SYBR Green, cherry-picked samples (AID 1159567); format: functional, cell-based
[20] = P. falciparum ATP4 D1247Y mutant growth inhibitors, dose response, NITD609-resistant line, SYBR Green, dry powder (AID 1159571); format: functional, cell-based;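 also: parasites synchronized at ring stage by sorbitol before testing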
[21] = P. falciparum 3D7-ScDHODH growth inhibitors, dose response, SYBR Green, dry powder samples (AID 1159570); format: functional, cell-based;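 also: parasite growth measured after 72 hours of compound exposure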
BJ [22] = experiment: cells; format: functional, cell-based; conditions: Homo sapiens
BJ [23] = experiment: cytotoxicity toward Ras-transformed BJeLR fibroblasts, dose response, cell-based, alamar blue fluorescence, cherrypicked samples (AID 2631); format: functional; conditions: Homo sapiens;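 also: confirmatory dose-response assay in RAS-dependent BJ fibroblasts engineered with TERT, LT and ST, with cytotoxicity read by fluorescence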
BJ [24] = experiment: cytotoxicity toward BJ-TERT fibroblasts, dose response, cell-based, RAS-independent, luminescence (AID 1933); format: functional; conditions: Homo sapiens
Paired box protein Pax-8 = Paired box protein Pax-8 (Homo sapiens, UniProt Q06710); experiment: inhibitors of PAX8-driven TPO luciferase reporter, dose response, RMG-I cells, cherry-pick (AID 687027); format: functional, cell-based;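 also: luciferase reporter driven by Pax8 target thyroperoxidase promoter measured by SteadyGlo luminescence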
[25] = cytotoxicity toward DRD oncogenic fibroblasts, dose response, cell-based, non-viral oncogenic, luminescence (AID 1934); format: functional; conditions: Homo sapiens
[26] = cytotoxicity in HEK-293T cells, dose response, cytotoxicity control for TCR NF-kB inhibitor project, luminescence, T-cell screen hits (AID 489026); format: functional, cell-based;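 also: cells exposed to compound about 14 hours before the viability readout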
[27] = Luminescence-based dose response cell-based high throughput screening assay for cytotoxic compounds using the IEC-6 intestinal epithelial cell line. [Related pubchem assays: 1858 (Summary AID.), 1825 (Counterscreen.), 1907 (Confirmation screen.)]; format: functional

Which IC50 [1] does the source give for `O=C1Nc2ccc(Cl)cc2[C@@](C#CC2CC2)(C(F)(F)F)O1` [EFAVIRENZ] here?
Its IC50 is 2.48 µM (active).

What about the IC50 [2] of the same compound?
Its IC50 is 21.2 µM (inactive).

And the IC50 [3]?
Its IC50 is 3.87 µM (active).

And the AC50 [4]?
Its AC50 is 6.38 µM (active).

What does the source list for `CSc1nnc(-c2ccco2)c(-c2ccco2)n1`?
IC50 [5]: 13.2 µM (not active); IC50 [6]: 29.5 µM (active); IC50 (Bcl-2-like protein 10): 19.4 µM (active); IC50 [7]: 8.02 µM (active); IC50 [8]: 1.04 µM (active); IC50 (SUMO-activating enzyme [9]): 2.91 µM (active); IC50 (Genome polyprotein): 86.8 µM (active); IC50 [10]: 41.5 µM (active); IC50 (SUMO-activating enzyme [11]): 15.2 µM (active); IC50 [12]: 99.7 µM (active); IC50 (Bcl-2-like protein 1): > 109 µM (not active); IC50 (Estrogen receptor beta): > 50 µM (not active); IC50 [13]: 99.1 µM (active); IC50 [14]: 80.4 µM (active)

Which IC50 (Phospholipase D1) does the source give for `O=C(NCCN1CCC2(CC1)C(=O)NCN2Cc1ccccc1Br)c1ccc2ccccc2c1` here?
Its IC50 is 1.68 µM (active).

What about the IC50 (Phospholipase D2) of the same compound?
Its IC50 is 0.16 µM (active).

For `CCC(=O)Nc1cc(OC)c(NC(=O)c2ccccc2)cc1OC`, which EC50 [15] is on record?
Its EC50 is 1.85 µM (active).

Which IC50 [16] does the source give for `O=C(Nc1ccc(F)cc1)c1cccs1` here?
Its IC50 is > 30 µM (not active).

Which AC50 [17] does the source give for `O=C(c1ccccc1F)N1CC(=O)N2[C@H](CO)[C@H](c3ccc(-c4cccnc4)cc3)[C@H]2C1` here?
Its AC50 is 0.129 µM (active).

And the AC50 [18]?
Its AC50 is 0.427 µM (active).

What about the AC50 [19] of the same compound?
The AC50 was < 0.3 µM (active).

What about the AC50 [20] of the same compound?
The AC50 was 0.148 µM (active).

What about the AC50 [21] of the same compound?
Its AC50 is 0.197 µM (active).

For `COc1ccc(/C=N/NC(=O)c2[nH]c3ccc(Br)cc3c2-c2ccccc2)cc1`, which EC50 (BJ [22]) is on record?
The EC50 was 34.8 µM (inconclusive).

What about the EC50 (BJ [23]) of the same compound?
The EC50 was 0.0886 µM (active).

What about the EC50 (BJ [24]) of the same compound?
Its EC50 is < 0.12 µM (inconclusive).

And the AC50 (Paired box protein Pax-8)?
The AC50 was < 0.5 µM (active).

What about the EC50 [25] of the same compound?
The EC50 was 0.361 µM (active).

What about the IC50 [26] of the same compound?
Its IC50 is > 80 µM (inactive).

What about the IC50 [27] of the same compound?
Its IC50 is 0.296 µM (active).
